The values below come from publication PMC11648675 (Cell, 2024).

Where a SMILES comes first, the peptide text is derived from it. The star is where a group is joined. CH2Cl = ClC*

One may read the EC50 as the midpoint of the concentration-response curve. A word on the Kd: it is the concentration at which binding is half-saturated.

Series [1] concerns EMT6 cells. Description: cell death of EMT6 cells in vitro. It counts as cell-based, mouse. Conditions: for cell death at concentration used for vaccination: 60 μM; for LDH release: WT EMT6 cells; for potency at killing WT EMT6 cells: cell-titer Glo assay, in vitro. For orientation: LDH in the medium is a marker of cell lysis.
Series [2] has as its system EMT6 tumor challenge. Description: vaccination with drug-treated EMT6 cells and EMT6 challenge. Format: in vivo, mouse. To be noted: for mice remaining tumor-free after challenge: immunization with drug-treated EMT6 cells, challenge 8 days later.
The test system of series [3] is GSDMD knockout (KO) THP-1 cells. The series is described as follows: cell death of GSDMD KO THP-1 cells by PI uptake. Format: cell-based, human. Conditions: 5 or 20 μM.
Series [4] has as its system WT EMT6 tumors. Description: orthotopic WT EMT6 tumors in BALB/c mice. It counts as in vivo, mouse.
Series [5] addresses C38A GSDMD (Homo sapiens, UniProt P57764, C38A). The series is described as follows: liposome leakage assay with C38A GSDMD. Format: biochemical. To be noted: read-out: EC50 for activating GSDMD pore formation.
Series [6] has as its target recombinant caspase-1 (Homo sapiens, UniProt P29466). The series is described as follows: Caspase-1 activity assay. It counts as biochemical. Conditions: in vitro, DMB 10 μM, Z-YVAD-AFC substrate.
Series [7] has as its system 4T1E tumors. Description: orthotopic 4T1E tumors in BALB/c mice, DMB and anti-PD-1. It counts as in vivo, mouse. Conditions: DMB 1 mg/kg weekly; anti-PD-1 every 2 days.
The subject of series [8] is human GSDMA, GSDMB, GSDMC, GSDME. Description: liposome leakage assay with other human gasdermins. It counts as biochemical. To be noted: gasdermins 0.3 μM.
Series [9] has as its target mCherry-tagged full-length GSDMD (Homo sapiens, UniProt P57764). Description: membrane localization of mCherry-tagged full-length GSDMD in HEK293T cells. Conditions: increasing concentrations of DMB. It counts as cell-based.
Series [10] has as its target T1, Human GSDMD (Homo sapiens, UniProt P57764). Description: microscale thermophoresis. Format: binding. To be noted: read-out: dissociation constant (KD) by MST; Alexa 647-labeled GSDMD.
The test system of series [11] is NLRP3. Description: NLRP3 activation in LPS-primed THP-1 cells. It counts as cell-based, human. To be noted: treatment after LPS priming.
In series [12] the test system is full-length GSDMD in HEK293T cells. Description: activation of full-length GSDMD in transfected HEK293T cells. It counts as cell-based, human.
The subject of series [13] is human peripheral blood mononuclear cells (PBMCs). Description: cell death of human PBMCs. Format: cell-based.
Series [14] concerns GSDMD KO THP-1 cells reconstituted with WT or D275A GSDMD. Description: PI uptake in GSDMD KO THP-1 cells reconstituted with WT or D275A GSDMD. It counts as cell-based, human. To be noted: 5 or 20 μM, 1, 2 and 4 h.
For series [15], the system named is CT26 colorectal cancer. The series is described as follows: subcutaneous CT26 tumors in syngeneic mice. Format: in vivo, mouse. Conditions: 10 mg/kg.
Series [16] concerns the target C191A GSDMD (Homo sapiens, UniProt P57764, C191A). The series is described as follows: liposome leakage assay with C191A GSDMD. Format: biochemical.
Series [17] deals with GSDMD (YFP at N terminus, RLuc at C terminus) (Homo sapiens, UniProt P57764). The series is described as follows: BRET assay of GSDMD NT-CT distance. Format: cell-based. In general terms: In BRET a luciferase serves as donor, and the signal depends on an acceptor being close.
The test system of series [18] is B16 cells expressing human GSDMD-GFP.
The test system of series [19] is Gsdmd−/− and Gsdmd−/−Gsdme−/− EMT6 tumors. Description: orthotopic gasdermin-KO EMT6 tumors in BALB/c mice. It counts as in vivo, mouse. To be noted: 10 mg/kg weekly.
Series [20] concerns EMT6 tumors in NSG mice. The series is described as follows: EMT6 tumors in NSG mice. It counts as in vivo, mouse. To be noted: NSG mice lacking functional lymphocytes.
For series [21], the system named is mouse GSDMD. Description: liposome leakage assay with mouse GSDMD. It counts as biochemical.
The target in series [22] is T1, Human GSDMD. Description: time-resolved fluorogenic. To be noted: read-out: EC50 of liposome leakage; human GSDMD 0.3 μM, Tb3+/DPA fluorescence. It counts as biochemical.
The subject of series [23] is immortalized mouse BMDMs (iBMDMs). The series is described as follows: cell death of immortalized mouse BMDMs. It counts as cell-based. Conditions: WT iBMDMs, 5 and 20 μM; not affected by caspase-1/11 ablation.
Series [24] concerns Human GSDMD-GFP-expressing B16 cells. Description: pyroptosis of B16-GSDMD-GFP cells in vitro by PI uptake. To be noted: 10 μM DMB. It counts as cell-based, mouse.
Series [25] deals with primary mouse bone-marrow-derived macrophages (BMDMs). The series is described as follows: cell death of primary mouse BMDMs. It counts as cell-based. Conditions: WT and GSDMD KO primary BMDMs.
Series [26] concerns THP-1 cells. Description: cell death of WT THP-1 cells by PI uptake. Format: cell-based, human.
Series [27] can be described thus: toxicity readouts in treated tumor-bearing mice. Format: in vivo, mouse.
In series [28] the test system is KP lung adenocarcinoma tumors. Description: subcutaneous KP tumors in WT and Gsdmd−/− C57BL/6 mice. It counts as in vivo, mouse.
Series [29] relates to B16 cells that expressed GFP. The series is described as follows: subcutaneous B16-GFP tumors in syngeneic mice. Format: in vivo, mouse. Conditions: 10 mg/kg every 3 days x6.
Setting [30] is: 10 mg/kg i.p. every 3 days x6 from day 5.

T1 sequence (P57764 whole entry): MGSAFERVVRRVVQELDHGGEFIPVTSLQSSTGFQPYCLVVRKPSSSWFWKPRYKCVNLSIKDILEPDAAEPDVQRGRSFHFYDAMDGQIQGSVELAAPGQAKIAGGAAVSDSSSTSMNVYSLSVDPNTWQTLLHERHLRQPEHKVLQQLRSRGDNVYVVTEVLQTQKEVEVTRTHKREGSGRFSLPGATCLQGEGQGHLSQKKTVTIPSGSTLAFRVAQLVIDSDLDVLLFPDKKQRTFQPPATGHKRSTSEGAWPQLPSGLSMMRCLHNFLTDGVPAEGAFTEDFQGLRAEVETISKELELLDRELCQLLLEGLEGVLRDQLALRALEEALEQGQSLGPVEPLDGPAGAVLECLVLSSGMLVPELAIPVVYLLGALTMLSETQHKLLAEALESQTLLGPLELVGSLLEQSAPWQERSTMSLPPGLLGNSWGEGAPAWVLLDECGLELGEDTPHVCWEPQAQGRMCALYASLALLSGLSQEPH
Chain of C191A GSDMD (P57764 whole entry C191A): as the sequence (P57764 whole entry) above, with C191A counted along it
Chain of recombinant caspase-1 (P29466 120-297 limits assumed, species assumed): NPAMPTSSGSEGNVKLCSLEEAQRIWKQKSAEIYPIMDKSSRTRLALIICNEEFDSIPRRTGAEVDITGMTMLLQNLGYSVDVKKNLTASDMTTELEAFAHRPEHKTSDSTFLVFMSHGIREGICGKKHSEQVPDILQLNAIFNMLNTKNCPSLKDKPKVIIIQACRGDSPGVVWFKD
Chain of recombinant caspase-1 (P29466 317-404 limits assumed, species assumed): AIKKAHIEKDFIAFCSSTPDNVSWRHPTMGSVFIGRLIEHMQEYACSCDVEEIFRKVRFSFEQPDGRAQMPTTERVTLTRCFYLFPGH
Chain of C38A GSDMD (P57764 whole entry C38A): as the sequence (P57764 whole entry) above, with C38A counted along it
Chain of GSDMD (YFP at N terminus, RLuc at C terminus) (P57764 whole entry): as the sequence (P57764 whole entry) above
Chain of mCherry-tagged full-length GSDMD (P57764 whole entry): as above

In the case of `CC(=O)N[C@@H](Cc1ccccc1)C(=O)N[C@@H](CC(C)C)C(=O)N[C@H](C(=O)N[C@@H](CC(=O)O)C(=O)CCl)[C@@H](C)O` [AC-FLTD-CMK] (Ac-FLTD-CH2Cl), the “effect of caspase inhibition on DMB-induced SYTOX Green uptake” value in [1] (EMT6 cells) is reported as “did not affect DMB-induced pyroptosis”.
Turning to `CC(C)(C)Nc1nc2cc(Cl)c(Cl)cc2nc1S(C)(=O)=O` [DMB, 6,7-dichloro-2-methylsulfonyl-3-N-tert-butylaminoquinoxaline], in series [2] (immunization with DMB-treated EMT6 cells), the “tumor size, times smaller than in mice immunized with MMC-treated cells” value is recorded as 6 times. Besides, in [2], the “mice remaining tumor-free after challenge” value is “Three of 12”. For the same compound, the “cell death by PI uptake” value in series [3] was “minimally”; in series [26] (WT THP-1 cells, 5 or 20 μM) it was “induced significant cell death within 2 h”. The tumor growth entry in series [4] (10 mg/kg weekly for 2 weeks, WT EMT6) was “significantly suppressed”; in [15], “A similar reduction in tumor growth”; in series [18] (setting [30]), “strongly inhibited tumor growth”; in series [19] (Gsdmd−/− EMT6), “not significantly reduced”; in series [19] (Gsdmd−/−Gsdme−/− EMT6), “not significantly reduced”; in series [20], “did not suppress the growth”. Besides, the tumor growth entry in series [28] is listed as “similarly inhibited”; in series [29] it was “no significant effect”. Also, in series [4] (10 mg/kg weekly, WT EMT6 tumors), the “GzmB/PFN expression and stimulated IFN-γ/TNF-α production of CD8+ and NK TILs” value is given as “significantly increased”. For the same compound, the EC50 in series [5] was approximately 0.9 µM; in [22], 0.7 µM; in [26] (read-out: EC50 of DMB-mediated cell death, WT THP-1, PI positivity at 4 h), 4.8 ± 0.4 µM. In addition, the “ATP release into supernatants” value in series [1] (EMT6 cells) is “peaked 2 and 3 h”. For the same compound, the “cell death at concentration used for vaccination” value in [1] (EMT6 cells, 5 h) is listed as 60–70%. Besides, the LDH release entry in series [1] was “beginning within an hour of treatment”. Also, in series [1], the “potency at killing WT EMT6 cells” value was “similarly potent”. Also, the “effect on recombinant caspase-1 activity” value in [6] was “neither inhibited nor activated”. The “tumor growth / tumor volume vs vehicle” value in series [7] is listed as “does not inhibit tumor growth on its own”. In series [8], the “activation of other human gasdermins” value was “activated human GSDMD but not other human gasdermins”. Further, the “membrane localization of mCherry-tagged full-length GSDMD” value in series [9] is listed as “up to 88%”. The Kd in series [10] stood at 1.1 ± 0.4 µM. Also, the “NLRP3 activation (ASC speck formation, IL-1β release)” value in [11] is “did not significantly activate NLRP3”. Moreover, the “activation of C191R and C191F full-length GSDMD mutants” value in [12] is “could not be activated”. Moreover, in series [13], the “induction of PI positivity, LDH release, ATP release” value is recorded as “robustly induced”. Also, the “cell death by PI uptake, WT vs D275A GSDMD rescue” value in series [14] is on record as “comparable cell death”. Moreover, the “activation of GSDMD pore formation” value in series [16] is recorded as “not activated”. Besides, in series [17], the “BRET signal compared with DMSO control” value was “decreased the BRET signal”. In addition, the “surviving mice cured with no palpable tumor” value in series [18] (setting [30]) was 3. In addition, the “mice surviving to the end of the experiment” value in series [18] (10 mg/kg i.p. every 3 days x6 from day 5, clones 9 and 10) is recorded as 5 of 16. The “T cells per tumor area, DMB vs. vehicle” value in series [18] (CD3+ CD8+ immunofluorescence) is 8.3 fold. Also, the “DCs per tumor area, DMB vs. vehicle” value in series [18] (MHCII+ CD11c+ immunofluorescence) is 25.2 fold. Besides, the “survival of mice bearing smaller tumors, delayed treatment” value in series [18] (treatment from day 10, every 3 days x6) was “two of the four”. The “fold reduced efficacy on mouse GSDMD vs human GSDMD” value in series [21] is ~ 5 fold. The cell death result in series [23] is “triggered cell death”. The “sensitivity to DMB-induced pyroptosis by PI uptake” value in series [24] is reported as “became sensitive to DMB-induced pyroptosis”. Moreover, the “GSDMD dependence of cell death induction” value in series [25] is reported as “depended on GSDMD”. For the same compound, in [27] (B16 tumor-bearing mice, 10 mg/kg every 3 days x6), the mouse body weight entry is reported as “no effect”. Further, the blood counts entry in [27] (EMT6-bearing mice, 10 mg/kg) is given as “normal blood counts”.
With `CO[C@@]12[C@H](COC(N)=O)C3=C(C(=O)C(C)=C(N)C3=O)N1C[C@@H]1N[C@@H]12` [MMC, mitomycin C], in [2], the “mice remaining tumor-free after challenge” value is “tumors grew in all the mice”. In series [1] (EMT6 cells), the “ATP release into supernatants” value is “did not trigger ATP release”. Moreover, in series [1] (EMT6 cells, 20 h), the “cell death at concentration used for vaccination” value is 60–70%. Besides, in [1], the LDH release entry is “much less and delayed LDH release”; the “potency at killing WT EMT6 cells” value was “similarly potent”.
As to `CCN(CC)C(=S)SSC(=S)N(CC)CC` [disulfiram, reference compound], the “effect of pretreatment on DMB-induced cell death” value in series [13] (pretreatment before DMB) is “strongly suppressed cell death”.
